{"source": "patent US8193149B2", "about": "“Use of Peptide YY, alone or in combination with glucagon-like peptide, for use in medicine” (mondoBIOTECH Laboratories AG, priority 2007, dated 2012)", "key": {"HIV-1IIIB": {"tested_on": "HIV-1IIIB", "test": "HIV-1 antiviral assay in CEM-SS cells (MTS readout)", "assay_type": "cell-based"}, "HUVEC": {"tested_on": "HUVEC", "test": "Endothelial tube formation assay", "assay_type": "cell-based, human", "conditions": "single peptide, 10 micrograms per ml, 20 hours", "method": "The endothelial tube formation assay is based on the ability of endothelial cells to form three-dimensional capillary-like tubular structures when cultured on a gel of basement membrane extract. […] Pre-labeled HUVEC with Calcein AM were seeded in a 96-well culture plate coated with extracellular metrix (Chemicon international Cat. ECM625) and treated with test peptides—10 micrograms per ml—in full growth medium. Positive control was vehicle only. The endothelial cells were allowed to form tubes foe 20 hours and were then examined under an inverted fluorescent microscope. Duplicate wells for each treatment were photographed and quantitatevily analyzed for an average tubule length using image analysis software ImageProPlus. Raw data were expressed as average tubule lenghs in pixels ± standard deviation. Statistic p values were computed using the Student's t-test."}, "spleen cells": {"tested_on": "spleen cells", "test": "Th1/Th2 cytokine profiling assay", "assay_type": "cell-based, Balb/c mice", "conditions": "10 micrograms per ml; Ovalbumin restimulation, 72 hours"}, "[1]": {"tested_on": "hepatitis B virus (HBV) ayw strain in HepG2-2.2.15 cells", "test": "HBV experimental assay system, secreted HBV DNA by TaqMan PCR", "assay_type": "cell-based", "conditions": "single peptide, 10 micrograms per ml; HepG2-2.2.15, six days", "method": "HepG2-2.2.15 is a stable cell line containing the hepatitis B virus (HBV) ayw strain genome (ATCC Cat. No. CRL-11997). […] After 16-24 hours the confluent monolayer of HepG2-2.2.15 cells was washed and the medium was replaced with complete medium containing test peptides—10 micrograms per ml—in duplicate. […] Three days later the culture medium was replaced with fresh medium containing the peptides. Six days following the initial administration of the peptides, the cell culture supernatants was collected, treated with pronase and DNAse and then used in a real-time quantitative TaqMan PCR assay. The PCR-amplified HBV DNA was detected in real-time by monitoring increases in fluorescence signals that result from the exonucleolytic degradation of a quenched fluorescence probe molecule that hybridizes to the amplified HBV DNA. For each PCR amplification, a standard curve was simultaneously generated using dilutions of purified HBV DNA. Antiviral activity was calculated from the reduction in HBV DNA levels (% virus control)."}, "[2]": {"tested_on": "Primary Human endothelial cells (HUVEC)", "test": "Endothelial cell migration assay", "assay_type": "cell-based", "conditions": "single peptide, 10 micrograms per ml, 22 hours"}, "HCMV strain AD169": {"tested_on": "HCMV strain AD169", "test": "HCMV plaque formation assay in MRC-5 cells", "assay_type": "cell-based"}}, "note": "No end group written: not given here.", "data": [{"compound": "Cc1cn([C@H]2C[C@H](N=[N+]=[N-])[C@@H](CO)O2)c(=O)[nH]c1=O", "note": "[AZT]", "values": [{"measurement": "antiviral activity of positive control compounds (HIV-1)", "setting": "HIV-1IIIB", "value": "expected levels of antiviral activity"}]}, {"compound": "His-Asp-Glu-Phe-Glu-Arg-His-Ala-Glu-Gly-Thr-Phe-Thr-Ser-Asp-Val-Ser-Ser-Tyr-Leu-Glu-Gly-Gln-Ala-Ala-Lys-Glu-Phe-Ile-Ala-Trp-Leu-Val-Lys-Gly-Arg-Gly-OH (HDEFERHAEGTFTSDVSSYLEGQAAKEFIAWLVKGRG-OH; listed as Homo sapiens) [Peptide 2, commercially available known peptide]", "values": [{"measurement": "inhibition of the tube formation of human endothelial cells", "setting": "HUVEC", "value": 25, "unit": "%"}, {"measurement": "IFNγ spleen cells; TH1 response (% of control)", "setting": "spleen cells", "value": "78.0 % of control"}, {"measurement": "IL-2 spleen cells (% of control)", "setting": "spleen cells", "value": "163.4 % of control"}, {"measurement": "IL-4 spleen cells; TH2 response (% of control)", "setting": "spleen cells", "value": "135.2 % of control"}, {"measurement": "IL-5 spleen cells; TH2 response (% of control)", "setting": "spleen cells", "value": "121.7 % of control"}, {"measurement": "TNF-a spleen cells; TH1 response (% of control)", "setting": "spleen cells", "value": "145.1 % of control"}, {"measurement": "inhibition of HBV replication as compared to the virus control infection", "setting": "[1]", "value": 62.3, "unit": "%"}, {"measurement": "inhibition of the migration of human endothelial cells", "setting": "[2]", "value": 65, "unit": "%"}, {"measurement": "inhibition of HCMV plaque formation as compared to the virus control", "setting": "HCMV strain AD169; 10 micrograms per ml, 7-10 days", "value": "did not inhibit"}]}, {"compound": "Nc1nc(O)c2ncn(COC(CO)CO)c2n1", "note": "[Ganciclovir, reference compound]", "values": [{"measurement": "antiviral activity of positive control compound (HCMV)", "setting": "HCMV strain AD169; HCMV AD169", "value": "expected levels of antiviral activity"}]}, {"compound": "CC(C)(C)NC(=O)[C@@H]1CN(Cc2cccnc2)CCN1C[C@@H](O)C[C@@H](Cc1ccccc1)C(=O)N[C@H]1c2ccccc2C[C@H]1O", "note": "[indinavir]", "values": [{"measurement": "antiviral activity of positive control compounds (HIV-1)", "setting": "HIV-1IIIB", "value": "expected levels of antiviral activity"}]}]}
